Assay [1] relates to bovine adrenal medullary microvascular endothelial cells. Nature of the assay: Cell cycle and apoptosis by flow cytometry (propidium iodide). In kind it is cell-based. How it is done:
Regarding flow cytometry, assessment of the cell cycle was determined by propidium iodide staining of fixed cell nuclei followed by flow cytometry in a FacSort (Beckton Dickinson) according to the method of Krishan (1975) as modified by Vindelov (1977), as discussed in KRISHAN, “Rapid Flow Cytofluorometric Analysis of Mammalian Cell Cycle by Propidium Iodide Staining”, J. Cell Biol., 66:188-193 (1975); and VINDELOV, “Flow Cytometric Analysis of Nuclear DNA in Cells from Solid Tumors and Cell Suspensions”, Virchows Arch (B), 24:227-231(1977), the disclosures of which are herein incorporated by reference in their entireties. Briefly, cells were trypsinized, and pelleted by centrifugation at 900 rpm in a bench top centrifuge (Sorvall T6000B). After washing twice with PBS the cell pellet was resuspended in propidium iodide-buffer (PI-buffer; 10 mM Tris-HCl, pH 8.0 containing 10 mM NaCl, 0.7 μM PI, 700 units/liter RNase, and 0.1% (v/v) NP-40), kept in ice for 30 minutes and then fixed with 2% (v/v) paraformaldehyde. After FacSort calibration, 3000 events were counted per sample. Acquisition and analysis of data were carried out by using Cell Quest flow cytometry software (Macintosh-based). Gates: M1=G0/G1, M2=S, M3=G2+M, M4=apoptosis.
Proliferation and Differentiation of Capillary Endothelial Cells: 2.0×10^4 cells were seeded per well in 24-well clusters in 1 ml complete EMEM containing 10% (v/v) serum and allowed to grow for 72 hours. Media were removed and the cells were washed twice with phosphate-buffer saline, pH 7.4 (PBS). Cells were synchronized by incubating for 48 hours in 2 mM hydroxyurea in serum-free EMEM with glutamine (2 mM) and one-third of penicillin-streptomycin used in a regular culture condition, followed by incubating 24 hours in serum-free EMEM, as discussed in CAO et al., “Modified Method of Mammalian Cell Synchronization Improves Yield and Degree of Synchronization”, Exp. Cell Res., 193:405-410 (1991), the disclosure of which is herein incorporated by reference in its entirety. Cells were routinely monitored by light microscopy. For proliferation assay, cells were trypsinized and counted in a hemacytometer. Viability of cells was determined by trypan blue (0.4% (v/v)) exclusion. Statistical analysis was carried out by StatView II software (Macintosh). Quantitation of cellular differentiation was carried out by observing under a Nikon AlphaShot inverted microscope, and counting the number of capillary lumen-like structures in five randomly selected fields per sample. The results were expressed as percent of its corresponding control after normalization of cell numbers. Analysis of Cell Cycle by Flow Cytometry: Assessment of the cell cycle was determined by propidium iodide staining of fixed cell nuclei followed by flow cytometry in a FacSort (Beckton Dickinson) according to the method of Krishan (1975) as modified by Vindelov (1977), as discussed in KRISHAN, “Rapid Flow Cytometric Analysis of Mammalian Cell Cycle by Propidium Iodide Staining”, J. Cell Biol. 66:188-195 (1975); and VINDELOV, “Flow Cytometric Analysis of Nuclear DNA in Cells from Solid Tumors and Cell Suspensions”, Virchows Arch (B), 24:227-231 (1977), the disclosures of which are herein incorporated by reference in their entireties. Briefly, cells were trypsinized, and pelleted by centrifugation at 900 rpm in a bench top centrifuge (Sorvall T6000B). After washing twice with PBS the cell pellet was resuspended in propidium iodide-buffer (PI-buffer; 10 mM Tris-HCl, pH 8.0 containing 10 mM NaCl, 0.7 μM PI, 700 units/liter RNase, and 0.1% (v/v) NP-40), kept in ice for 30 minutes and then fixed with 2% (v/v) paraformaldehyde. After FacSort calibration, 3000 events were counted per sample. Acquisition and analysis of data were carried out by using Cell Quest flow cytometry software (Macintosh-based). Gates: M1 G0/G1, M2=S, M3=G2+M, M4=apoptosis.

For assay [2] the test system is unchanged. Nature of the assay: Recovery of endothelial cells after tunicamycin treatment (parental line). In kind it is cell-based. As for the experimental part:
If the behavior of tunicamycin observed here is truly anti-angiogenic and is not due to cytotoxicity then cells must recover following a tunicamycin treatment that is shorter in duration, and the concentrations are moderate. […] On the other hand, the recovery was quantitative from a 24 hour exposure to tunicamycin at all concentrations (data not shown).

Assay [3] relates to protein N-glycosylation. To be noted: control cells and isoproterenol-treated cells, BANERJEE et al. (1993); cited from earlier work.

This is an account of results in patent US7361643B2, “Methods for inhibiting angiogenesis” (University of Puerto Rico, priority 2000, dated 2008).

Turning to tunicamycin, the “completion of the cell cycle” value in assay [1] (1 μg/ml tunicamycin) is recorded as “never completed the cell cycle”. The “cell population entered into apoptosis” value in assay [1] (1 μg/ml tunicamycin, 32 hours exposure, synchronized cells, EMEM 2% (v/v) FBS) is roughly 70%. For the same substance, in assay [1] (in the presence of tunicamycin), the “apoptosis by flow cytometric analysis (in words)” value is reported as “underwent apoptosis”. The “recovery of cells in 5 days” value in assay [2] (10 ng/ml tunicamycin for 48 hours) was “full recovery”. Further, the recovery of cells result in assay [2] (1 μg/ml tunicamycin for 48 hours) is “approximately 40%”; in assay [2] (10 μg/ml tunicamycin for 48 hours), 12%; in assay [2] (24 hour exposure to tunicamycin at all concentrations (data not shown)), “quantitative”; in assay [2] (tunicamycin for 72 hours or longer at 1 μg/ml or 10 μg/ml) it was “never recovered”. Moreover, the glycosylation entry in assay [3] is given as “reduced glycosylation”.
